# System: P. gingivalis 33277 mutants
# Experiment: polymixin B sensitivity of P. gingivalis strains
# Assay type: cell-based, Porphyromonas gingivalis
# Conditions: J5-c5 transposon mutant; similar to the wild-type bacterium
substance,measurement,value
polymixin B,polymixin B sensitivity of J5-c5 mutants,resistance

# — patent publication US20210024975A1, “METHODS FOR IDENTIFYING INHIBITORS OF LIPID A DEACYLASE AND […] RELATED TO SAME” (UNIVERSITY OF WASHINGTON, priority 2019, published 2021)
